# Starred links: 1 amine or outer side, 2 acyl side, 3 side chain; linkers in the order of their positions; H or OH if unused. Non-standard residues stand in square brackets, D forms with d. Residues, ends and D or L forms follow the SMILES beside them. Groups on a side chain read outwards from the residue. *: point of attachment. C20 diacid = O=C(O)CCCCCCCCCCCCCCCCCCC(=O)*; C18 diacid = O=C(O)CCCCCCCCCCCCCCCCC(=O)*; γGlu = O=C(O)[C@H](CCC(=O)[*:2])N[*:1]; αMeF = C[C@](N)(Cc1ccccc1)C(=O)O; AEEA = NCCOCCOCC(=O)O; Aib = CC(C)(N)C(=O)O
# Biological target: T1, human GLP-1 receptor (hGLP-1R) (Homo sapiens, UniProt P43220)
# T1 construct: expressed in transfected cells; host or cells: CHO
# Assay: cAMP production (HTRF) in CHO cells expressing human GLP-1 receptor
# Assay type: cell-based
# Conditions: Table 8; % GLP-1R activity relative to GLP-1 / % GlucR activity relative to glucagon
# T1 sequence (P43220 24-463): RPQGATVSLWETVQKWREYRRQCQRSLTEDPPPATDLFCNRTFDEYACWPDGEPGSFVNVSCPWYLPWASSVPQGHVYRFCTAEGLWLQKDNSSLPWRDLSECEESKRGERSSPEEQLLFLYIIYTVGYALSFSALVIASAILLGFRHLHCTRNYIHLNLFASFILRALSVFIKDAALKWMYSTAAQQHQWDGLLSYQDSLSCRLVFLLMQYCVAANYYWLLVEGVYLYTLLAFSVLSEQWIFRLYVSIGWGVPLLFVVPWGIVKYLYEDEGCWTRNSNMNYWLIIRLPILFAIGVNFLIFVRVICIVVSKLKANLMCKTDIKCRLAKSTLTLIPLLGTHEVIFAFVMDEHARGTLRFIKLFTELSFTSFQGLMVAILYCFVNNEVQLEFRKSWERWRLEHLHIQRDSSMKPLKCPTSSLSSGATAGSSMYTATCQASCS
row,Compound,% Relative Potency Ratio
1,CC[C@H](C)[C@H](NC(=O)[C@H](Cc1c[nH]c2ccccc12)NC(=O)[C@H](CCCCNC(=O)COCCOCCNC(=O)COCCOCCNC(=O)CC[C@H](NC(=O)CCCCCCCCCCCCCCCCCCC(=O)O)C(=O)O)NC(=O)[C@@H](NC(=O)[C@H](Cc1ccccc1)NC(=O)[C@H](CC(=O)O)NC(=O)[C@H](CCC(N)=O)NC(=O)[C@H](C)NC(=O)[C@H](C)NC(=O)[C@H](CCCNC(=N)N)NC(=O)[C@H](CO)NC(=O)[C@H](CC(=O)O)NC(=O)[C@H](CC(C)C)NC(=O)[C@](C)(Cc1ccccc1)NC(=O)[C@H](CCCCN)NC(=O)[C@H](CO)NC(=O)[C@@H](NC(=O)[C@H](CC(=O)O)NC(=O)[C@H](CO)NC(=O)[C@@H](NC(=O)[C@](C)(Cc1ccccc1)NC(=O)[C@H](CO)NC(=O)CNC(=O)[C@H](Cc1c[nH]cn1)NC(=O)C(C)(C)NC(=O)[C@@H](N)Cc1c[nH]cn1)[C@@H](C)O)C(C)C)C(C)C)C(=O)N[C@@H](C)C(=O)N[C@@H](CC(N)=O)C(=O)N[C@H](C(N)=O)[C@@H](C)O [Peptide 367] (H-H[Aib]HGS[αMeF]TSDVSK[αMeF]LDSRAAQDFVK([AEEA-AEEA-γGlu-C20 diacid])WIANT-NH2; N-terminus assumed),1.0
2,"CC[C@H](C)[C@H](NC(=O)[C@H](Cc1c[nH]c2ccccc12)NC(=O)[C@H](CCCCNC(=O)COCCOCCNC(=O)COCCOCCNC(=O)CC[C@H](NC(=O)CCCCCCCCCCCCCCCCC(=O)O)C(=O)O)NC(=O)[C@@H](NC(=O)[C@H](Cc1ccccc1)NC(=O)[C@H](CC(=O)O)NC(=O)[C@H](CCC(N)=O)NC(=O)[C@H](C)NC(=O)C(C)(C)NC(=O)[C@H](CCCNC(=N)N)NC(=O)[C@H](CO)NC(=O)[C@H](CC(=O)O)NC(=O)[C@H](CC(C)C)NC(=O)[C@](C)(Cc1ccccc1)NC(=O)[C@H](CCCCN)NC(=O)[C@H](CO)NC(=O)[C@@H](NC(=O)[C@H](CC(=O)O)NC(=O)[C@H](CO)NC(=O)[C@@H](NC(=O)[C@](C)(Cc1ccccc1)NC(=O)[C@H](CO)NC(=O)CNC(=O)[C@H](Cc1c[nH]cn1)NC(=O)C(C)(C)NC(=O)[C@@H](N)Cc1c[nH]cn1)[C@@H](C)O)C(C)C)C(C)C)C(=O)N[C@@H](C)C(=O)N[C@@H](CC(N)=O)C(=O)N[C@H](C(N)=O)[C@@H](C)O [Peptide 365, H(Aib)HGS(αMePhe)TSDVSK(αMePhe)LDSR(Aib)AQDFVK(O2Oc-O2Oc-γE-C18diacid)24WIANT-amide] (H-H[Aib]HGS[αMeF]TSDVSK[αMeF]LDSR[Aib]AQDFVK([AEEA-AEEA-γGlu-C18 diacid])WIANT-NH2; N-terminus assumed)",0.3
3,CC[C@H](C)[C@H](NC(=O)[C@H](CO)NC(=O)[C@H](CCCCNC(=O)COCCOCCNC(=O)COCCOCCNC(=O)CC[C@H](NC(=O)CCCCCCCCCCCCCCCCC(=O)O)C(=O)O)NC(=O)[C@@H](NC(=O)[C@](C)(Cc1ccccc1)NC(=O)[C@H](CC(=O)O)NC(=O)[C@H](CCC(N)=O)NC(=O)[C@H](C)NC(=O)[C@H](C)NC(=O)[C@H](CCCNC(=N)N)NC(=O)[C@H](CO)NC(=O)[C@H](CC(=O)O)NC(=O)[C@H](CC(C)C)NC(=O)[C@](C)(Cc1ccccc1)NC(=O)[C@H](CCCCN)NC(=O)[C@H](CO)NC(=O)[C@@H](NC(=O)[C@H](CC(=O)O)NC(=O)[C@H](CO)NC(=O)[C@@H](NC(=O)[C@](C)(Cc1ccccc1)NC(=O)[C@H](CO)NC(=O)CNC(=O)[C@H](Cc1c[nH]cn1)NC(=O)C(C)(C)NC(=O)[C@@H](N)Cc1c[nH]cn1)[C@@H](C)O)C(C)C)C(C)C)C(=O)N[C@@H](C)C(=O)N[C@@H](CC(N)=O)C(=O)N[C@H](C(N)=O)[C@@H](C)O [Peptide 379] (H-H[Aib]HGS[αMeF]TSDVSK[αMeF]LDSRAAQD[αMeF]VK([AEEA-AEEA-γGlu-C18 diacid])SIANT-NH2),2.4
4,CC[C@H](C)[C@H](NC(=O)[C@H](Cc1c[nH]c2ccccc12)NC(=O)[C@H](CCCCNC(=O)COCCOCCNC(=O)COCCOCCNC(=O)CC[C@H](NC(=O)CC[C@H](NC(=O)CCCCCCCCCCCCCCCCC(=O)O)C(=O)O)C(=O)O)NC(=O)[C@@H](NC(=O)[C@H](Cc1ccccc1)NC(=O)[C@H](CC(=O)O)NC(=O)[C@H](CCC(N)=O)NC(=O)[C@H](C)NC(=O)[C@H](C)NC(=O)[C@H](CCCNC(=N)N)NC(=O)[C@H](CO)NC(=O)[C@H](CC(=O)O)NC(=O)[C@H](CC(C)C)NC(=O)[C@](C)(Cc1ccccc1)NC(=O)[C@H](CCCCN)NC(=O)[C@H](CO)NC(=O)[C@@H](NC(=O)[C@H](CC(=O)O)NC(=O)[C@H](CO)NC(=O)[C@@H](NC(=O)[C@](C)(Cc1ccccc1)NC(=O)[C@H](CO)NC(=O)CNC(=O)[C@H](Cc1c[nH]cn1)NC(=O)C(C)(C)NC(=O)[C@@H](N)Cc1c[nH]cn1)[C@@H](C)O)C(C)C)C(C)C)C(=O)N[C@@H](C)C(=O)N[C@@H](CC(N)=O)C(=O)N[C@H](C(=O)NCC(=O)NCC(N)=O)[C@@H](C)O [Peptide 364] (H-H[Aib]HGS[αMeF]TSDVSK[αMeF]LDSRAAQDFVK([AEEA-AEEA-γGlu-γGlu-C18 diacid])WIANTGG-NH2; N-terminus assumed),2.6
5,CC[C@H](C)[C@H](NC(=O)C(C)(C)NC(=O)[C@H](CCCCNC(=O)COCCOCCNC(=O)COCCOCCNC(=O)CC[C@H](NC(=O)CCCCCCCCCCCCCCCCCCC(=O)O)C(=O)O)NC(=O)[C@@H](NC(=O)[C@H](Cc1ccccc1)NC(=O)[C@H](CC(=O)O)NC(=O)[C@H](CCC(N)=O)NC(=O)[C@H](C)NC(=O)[C@H](C)NC(=O)[C@H](CCCNC(=N)N)NC(=O)[C@H](CO)NC(=O)[C@H](CC(=O)O)NC(=O)[C@H](CC(C)C)NC(=O)[C@](C)(Cc1ccccc1)NC(=O)[C@H](CCCCN)NC(=O)[C@H](CO)NC(=O)[C@@H](NC(=O)[C@H](CC(=O)O)NC(=O)[C@H](CO)NC(=O)[C@@H](NC(=O)[C@](C)(Cc1ccccc1)NC(=O)[C@H](CO)NC(=O)CNC(=O)[C@H](Cc1c[nH]cn1)NC(=O)C(C)(C)NC(=O)[C@@H](N)Cc1c[nH]cn1)[C@@H](C)O)C(C)C)C(C)C)C(=O)N[C@@H](C)C(=O)N[C@@H](CC(N)=O)C(=O)N[C@H](C(N)=O)[C@@H](C)O [Peptide 369] (H-H[Aib]HGS[αMeF]TSDVSK[αMeF]LDSRAAQDFVK([AEEA-AEEA-γGlu-C20 diacid])[Aib]IANT-NH2),3.8
6,CC[C@H](C)[C@H](NC(=O)[C@H](Cc1c[nH]c2ccccc12)NC(=O)[C@H](CCCCNC(=O)CC[C@H](NC(=O)CCCCCCCCCCCCCCCCCCC(=O)O)C(=O)O)NC(=O)[C@@H](NC(=O)[C@H](Cc1ccccc1)NC(=O)[C@H](CC(=O)O)NC(=O)[C@H](CCC(N)=O)NC(=O)[C@H](C)NC(=O)[C@H](C)NC(=O)[C@H](CCC(N)=O)NC(=O)[C@H](CO)NC(=O)[C@H](CC(=O)O)NC(=O)[C@H](CC(C)C)NC(=O)[C@](C)(Cc1ccccc1)NC(=O)[C@H](CCCCN)NC(=O)[C@H](CO)NC(=O)[C@@H](NC(=O)[C@H](CC(=O)O)NC(=O)[C@H](CO)NC(=O)[C@@H](NC(=O)[C@H](Cc1ccccc1)NC(=O)[C@@H](NC(=O)CNC(=O)[C@H](Cc1c[nH]cn1)NC(=O)C(C)(C)NC(=O)[C@@H](N)Cc1c[nH]cn1)[C@@H](C)O)[C@@H](C)O)C(C)C)C(C)C)C(=O)N[C@@H](C)C(=O)N[C@@H](CC(N)=O)C(=O)N[C@H](C(N)=O)[C@@H](C)O [Peptide 347],0.2

# Same assay, conditions: Table 9; % GLP-1R activity relative to GLP-1 / % GlucR activity relative to glucagon
row,Compound,% Relative Potency Ratio
1,H(Aib)HGS(αMePhe)TSDK(O2OC-O2OC-γE-γE-C20diacid)10SK(αMePhe)LDSRAAQD(αMePhe)VQ(Aib)IANT-amide [Peptide 391],49.1

# Source: patent publication US12630600B2 (MEDIMMUNE LIMITED, priority 2022, dated 2026)
